In US20100119599A1 (ARCHER PHARMACEUTICALS, INC., priority 2006, published 2010):
Structures can show the parent of a compound that is named as a salt. Where two headings read alike, the source gives them in different places.

Columns and labels:
[1] = tested on: Aβ1-40; experiment: Measurement of Aβ1-40 in culture medium of 7W WT APP751 CHO cells by ELISA; format: cell-based, Chinese hamster; conditions: for activity at 5 µM: Cricetulus griseus, 5 μM test compound, CHO cells stably transfected with human APP751, culture medium, ELISA, control DMSO; for Aβ1-40 (% of control): CHO cells that overexpress APP751, zero = below the detection limit of the assay;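 on all read-outs here: 5 µM test compound but RI-coded compounds at 10 µM for 24 hours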
Experimental: (§1) Chinese hamster ovary (CHO) cells, stably transfected with human APP751 (7W WT APP751 CHO cells) were used. See, e.g., Koo and Squazzo, J. Biol. Chem., 269(26): 17386-17389, 1994. The cells were maintained in DMEM medium supplemented with 10% fetal bovine serum and 1× mixture of penicillin/streptomycin/fungizone/glutamine mixture (Cambrex, Md.) geneticin as selecting agent in 75 cm^2 cell culture flasks. The 7W WT APP751 CHO cells were plated in 96-well cell culture plates in quadruplicate, containing 200 microliters of culture medium, for 18 hours at 37° C. and 5% CO2. All test compounds were placed in dimethyl sulfoxide (DMSO) before being added to the cultured confluent 7W WT APP751 CHO cells to a concentration of the test compound of 5 μM. The culture medium was collected and diluted before being assayed by ELISAs for Aβ1-40 at 10-fold dilution and Aβ1-42 at 2-fold dilution, respectively. Concentrations of Aβ1-40 and Aβ1-42, expressed in pg/ml, were determined using commercially available ELISAs (Biosource, Calif.) in a colorimetric assay using labeled antibodies detected spectrophotometrically. For compounds with an identification beginning “RI”, the compounds were tested at a concentration of 10 μM for 24 hours. Control cells were treated with DMSO containing no compound. The percentage reduction in levels of Aβ1-40 and Aβ1-42 as compared to control cells not exposed to the test compounds are reported for the compounds in Tables 1, 2, and 3, supra. An entry of “0” indicates no detectable amount of Aβ1-40 or Aβ1-42 according to the assay conditions. The data in Tables 1, 2, and 3 may be rounded to the nearest 0.1%.

[2] = tested on: Aβ1-42; experiment: Measurement of Aβ1-42 in culture medium of 7W WT APP751 CHO cells by ELISA; format: cell-based, Chinese hamster; conditions: for activity at 5 µM: Cricetulus griseus, 5 μM test compound, CHO cells stably transfected with human APP751, culture medium, ELISA, control DMSO; for Aβ1-42 (% of control): CHO cells that overexpress APP751, zero = below the detection limit of the assay;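 on Aβ1-42 (% of control): 5 µM test compound but RI-coded compounds at 10 µM for 24 hours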
Experimental: as §1

[3] = Table 1, 0 = no detectable amount
[4] = Table 1, 0 = no detectable amount, read-out: Aβ1-42 (% of control)
[5] = Table 3, read-out: Aβ-42 (% of control)

Row | Compound | activity at 5 µM [1, 3] [%] | activity at 5 µM [2, 4] [%] | Aβ1-40 (% of control) [1] | Aβ1-42 (% of control) [2] | further results
1 | CC1=C(C(=O)OC2CCCCC2)C(c2ccc(Cl)c(Cl)c2)C2=C(CCCC2=O)N1 (stereo not shown) [ST013269, cyclohexyl 4-(3,4-dichlorophenyl)-2-methyl-5-oxo-1,4,6,7,8-pentahydroquinoline-3-carboxylate] | 12.3 | 1.35 |  |  | 
2 | CC1=C(C(=O)OC2CCCCC2)C(c2cccc(Cl)c2)C2=C(CCCC2=O)N1 (stereo not shown) [ST015159, cyclohexyl 4-(3-chlorophenyl)-2-methyl-5-oxo-1,4,6,7,8-pentahydroquinoline-3-carboxylate] | 2.98 | 0 |  |  | 
3 | N[C@@H](Cn1ccc(=O)c(O)c1)C(=O)O [ST056312, (2S)-2-amino-3-(3-hydroxy-4-oxohydropyridyl)propanoic acid] |  |  |  |  | activity at 5 µM ([1]; Table 3): 70.7%; activity at 5 µM [2, 5]: 37.1%
4 | CCOCCOC(=O)C1=C(C)NC2=C(C(=O)CCC2)C1c1ccc(OC)c(OC)c1 (stereo not shown) [ST013341, 2-ethoxyethyl 4-(3,4-dimethoxyphenyl)-2-methyl-5-oxo-1,4,6,7,8-pentahydroquinoline-3-carboxylate] | 73 | 73.9 |  |  | 
5 | CCOc1cc(C2C(C(=O)OC(C)C)=C(C)NC3=C2C(=O)CCC3)ccc1O (stereo not shown) [ST015043, methylethyl 4-(3-ethoxy-4-hydroxyphenyl)-2-methyl-5-oxo-1,4,6,7,8-pentahydroquinoline-3-carboxylate] | 95.9 | 68.8 |  |  | 
6 | CC1=C(C(=O)Nc2ccccc2)C(c2cccs2)C(C#N)=C(SCC(=O)NC2CCC(C)CC2)N1 (stereo not shown) [RI_21] |  |  | 18.7 % of control | 22.1 % of control | 
7 | COc1ccc(C2C(C(=O)OC(C)C)=C(C)NC3=C2C(=O)CC(c2ccccc2)C3)c(OC)c1 (stereo not shown) [ST017229, methylethyl 4-(2,4-dimethoxyphenyl)-2-methyl-5-oxo-7-phenyl-1,4,6,7,8-pentahydroquinoline-3-carboxylate] | 63.1 | 98.7 |  |  | 
8 | CCOC(=O)C1=CN(c2cc(C)ccc2C)C=C(C(=O)OCC)C1c1cc(OC)c(OC)c(OC)c1 [ST052491, ethyl 1-(2,5-dimethylphenyl)-5-(ethoxycarbonyl)-4-(3,4,5-trimethoxyphenyl)-1,4-dihydropyridine-3-carboxylate] |  |  | 70.29 % of control | 28.35 % of control | 
9 | CCc1cccc(NC(=O)CSC2=C(C#N)C(c3cc(Br)cs3)C(C(=O)Nc3ccccc3)=C(C)N2)c1 (stereo not shown) [RI_80] |  |  | 64.37 % of control | 54.3 % of control | 
10 | CC1=C(C(=O)Nc2ccccc2)C(c2ccsc2)C(C#N)=C(SCC(=O)Nc2ccc(C(C)(C)C)cc2)N1 (stereo not shown) [RI_64] |  |  | 34.1 % of control | 41.3 % of control | 
11 | CC1=C(C(=O)Nc2ccccc2)C(c2c(Cl)cccc2Cl)C(C(=O)Nc2ccccc2)=C(C)N1 [ST217080, [4-(2,6-dichlorophenyl)-2,6-dimethyl-5-(N-phenylcarbamoyl)(3-1,4-dihydropyridyl)]-N-benzamide] |  |  | 65.54 % of control | 0 % of control | 
12 | Cc1ccccc1/C=c1/sc2n(c1=O)C(N)=C(C#N)C(c1ccccc1C)C=2C#N (stereo not shown) [ST003359, 5-amino-7-(2-methylphenyl)-2-[(2-methylphenyl)methylene]-3-oxo-4,7-dihydro-1,3-thiazolidino[3,2-a]pyridine-6,8-dicarbonitrile] |  |  | 56.16 % of control | 98.22 % of control | 
13 | CCn1c2ccccc2c2cc(C3C(C(=O)OC4CCCC4)=C(C)NC4=C3C(=O)CC(C)(C)C4)ccc21 (stereo not shown) [ST052173, cyclopentyl 4-(9-ethylcarbazol-3-yl)-2,7,7-trimethyl-5-oxo-1,4,6,7,8-pentahydroquinoline-3-carboxylate] | 64.7 | 32.5 |  |  | 
14 | COC(=O)C1=C(C)NC2=C(C(=O)CCC2)C1c1cc(Br)c(O)c(OC)c1 (stereo not shown) [ST013141, methyl 4-(3-bromo-4-hydroxy-5-methoxyphenyl)-2-methyl-5-oxo-1,4,6,7,8-pentahydroquinoline-3-carboxylate] | 89.7 | 23.7 |  |  | 
15 | N#Cc1c(S)[nH]c(C(F)(F)F)cc1=O [ST014350, 4-oxo-2-sulfanyl-6-(trifluoromethyl)hydropyridine-3-carbonitrile, 4-methylmorpholine salt] |  |  |  |  | activity at 5 µM ([1]; Table 3): 81.8%; activity at 5 µM [2, 5]: 46.1%
16 | CCCCNC(=O)CSC1=C(C#N)C(c2cccs2)C(C(=O)Nc2ccccc2)=C(C)N1 (stereo not shown) [RI_23] |  |  | 49.3 % of control | 35.9 % of control | 
17 | CCOCCOC(=O)C1=C(C)NC2=C(C(=O)CC(c3ccccc3)C2)C1c1ccc(Br)cc1 (stereo not shown) [ST017313, 2-ethoxyethyl 4-(4-bromophenyl)-2-methyl-5-oxo-7-phenyl-1,4,6,7,8-pentahydroquinoline-3-carboxylate] | 44.2 | 85.4 |  |  | 
18 | CCCOc1ccccc1C1C(C(=O)OCCc2ccccc2)=C(C)NC2=C1C(=O)CCC2 (stereo not shown) [ST015060, 2-phenylethyl 2-methyl-5-oxo-4-(2-propoxyphenyl)-1,4,6,7,8-pentahydroquinoline-3-carboxylate] | 0 | 0 |  |  | 
19 | COc1ccc(COC(=O)C2=C(C)NC3=C(C(=O)CCC3)C2c2cccc(F)c2)cc1 (stereo not shown) [ST016959, (4-methoxyphenyl)methyl 4-(3-fluorophenyl)-2-methyl-5-oxo-1,4,6,7,8-pentahydroquinoline-3-carboxylate] | 28.8 | 57.2 |  |  | 
20 | COCCOC(=O)C1=C(C)NC2=C(C(=O)CCC2)C1c1ccc(O)cc1 (stereo not shown) [ST013254, 2-methoxyethyl 4-(4-hydroxyphenyl)-2-methyl-5-oxo-1,4,6,7,8-pentahydroquinoline-3-carboxylate] | 49.6 | 76.9 |  |  | 
21 | COc1ccc(C2C(C(=O)OCCOc3ccccc3)=C(C)NC3=C2C(=O)CC(C)(C)C3)cc1O (stereo not shown) [ST052422, 2-phenoxyethyl 4-(3-hydroxy-4-methoxyphenyl)-2,7,7-trimethyl-5-oxo-1,4,6,7,8-pentahydroquinoline-3-carboxylate] | 38.3 | 44.8 |  |  | 
22 | CC1=C(C(=O)Nc2ccccc2)C(c2ccsc2)C(C#N)=C(SCC(=O)Nc2ccc(C(C)C)cc2)N1 (stereo not shown) [RI_46] |  |  | 74.4 % of control | 70.2 % of control | 
23 | COc1ccccc1C1C(C(=O)OC2CCCC2)=C(C)NC2=C1C(=O)CC(c1ccccc1)C2 (stereo not shown) [ST017176, cyclopentyl 4-(2-methoxyphenyl)-2-methyl-5-oxo-7-phenyl-1,4,6,7,8-pentahydroquinoline-3-carboxylate] | 34.2 | 49.8 |  |  | 
24 | CC1=C(C(=O)Nc2ccccc2)C(c2cccs2)C(C#N)=C(SCC(=O)Nc2ccc(Br)cc2)N1 (stereo not shown) [RI_71] |  |  | 34.5 % of control | 25.1 % of control | 
25 | COCCOC(=O)C1=C(C)NC2=C(C(=O)CCC2)C1c1ccc(N(C)C)cc1 (stereo not shown) [ST013251, 2-methoxyethyl 4-[4-(dimethylamino)phenyl]-2-methyl-5-oxo-1,4,6,7,8-pentahydroquinoline-3-carboxylate] | 89.4 | 58.6 |  |  | 
26 | CCOc1ccc(NC(=O)CSC2=C(C#N)C(c3cccs3)C(C(=O)Nc3ccccc3C)=C(C)N2)cc1 (stereo not shown) [ST050838, 2-{3-cyano-6-methyl-5-[N-(2-methylphenyl)carbamoyl]-4-(2-thienyl)(2-1,4-dihydropyridylthio)}-N-(4-ethoxyphenyl)acetamide] |  |  | 70.76 % of control | 56.66 % of control | 
27 | CCCOCCOC(=O)C1=C(C)NC2=C(C(=O)CC(C)(C)C2)C1c1ccccc1Cl (stereo not shown) [ST052454, 2-propoxyethyl 4-(2-chlorophenyl)-2,7,7-trimethyl-5-oxo-1,4,6,7,8-pentahydroquinoline-3-carboxylate] | 25.6 | 33.2 |  |  | 
28 | COc1ccc(C2C(C(=O)OC3CCCC3)=C(C)NC3=C2C(=O)CC(C)(C)C3)c(OC)c1 (stereo not shown) [ST013086, cyclopentyl 4-(2,4-dimethoxyphenyl)-2,7,7-trimethyl-5-oxo-1,4,6,7,8-pentahydroquinoline-3-carboxylate] | 0 | 73.7 |  |  | 
29 | CCOC(=O)C1=C(C)NC(C)=C(C(=O)OCC)C1c1c(Cl)cccc1Cl [ST211423, ethyl 4-(2,6-dichlorophenyl)-5-(ethoxycarbonyl)-2,6-dimethyl-1,4-dihydropyridine-3-carboxylate] |  |  | 2.731 % of control | 0 % of control | 
